This passage reports IC50 results from patent US20110112100A1, “Hepatitis C Virus Inhibitors” (priority 2009, published 2011).

Where a name gives a salt, the structure may show the parent alone. Read-outs that look alike come from different tables or passages of the source.

One experiment concerns 1b (con1) replicon cells. Nature of the experiment: HCV 1b replicon inhibitory activity (luciferase, Britelite Plus). It is filed as cell-based, hepatitis C virus. The note with it: read-out: IC50 value (95% Confidence Intervals) pM Replicon 1B assay. The essentials: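 1b (con1) luciferase replicon cells in DMEM + 10% FCS were exposed to 1-in-3 DMSO compound dilutions for 48 h at 37° C, 5% CO2. Luminescence was read 1-15 min after Britelite Plus addition; EC50 came from log concentration-response curves.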
For orientation: Replicon systems follow genome replication, usually without infectious particles.

The subject of another experiment is 1a-H77 replicon cells. Nature of the experiment: HCV 1a replicon inhibitory activity (Renilla luciferase). It is filed as cell-based, hepatitis C virus. The note with it: read-out: IC50 value (95% Confidence Intervals) pM Replicon 1A assay. The procedure, abridged: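 Replicon cells in DMEM + 10% FCS incubated 48 hours at 37° C., 5% CO2 with 1-in-3 serial dilutions of compound prepared in DMSO. Replication read as Renilla luciferase luminescence after lysis. EC50 taken from log concentration-response curves.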

The mark [1] stands for this setting: Hepatitis C virus, geometric mean, 95% confidence intervals in parentheses, 48 hours, medium with 10% FCS.
[2] abbreviates: geometric mean, 95% confidence intervals in parentheses, 48 hours, medium with 10% FCS.

In general, IC50 refers to the concentration at which inhibition is half-maximal. On to `COC(=O)N[C@H](C(=O)N1CCC[C@H]1c1nc(-c2ccc(-c3cnc4cc(-c5cnc([C@@H]6CCCN6C(=O)[C@@H](NC(=O)OC)C(C)C)[nH]5)cnc4c3)cc2)c[nH]1)C(C)C` [Example 19, Methyl {(2S)-1-[(2S)-2-{5-[7-(4-{2-[(2S)-1-{(2S)-2-[(methoxycarbonyl)amino]-3-methylbutanoyl}pyrrolidin-2-yl]-1H-imidazol-4-yl}phenyl)-1,5-naphthyridin-3-yl]-1H-imidazol-2-yl}pyrrolidin-1-yl]-3-methyl-1-oxobutan-2-yl}carbamate], for which the figures for the IC50 in the experiment with 1b (con1) replicon cells (setting [1]) and in the experiment on 1a-H77 replicon cells (setting [1]) were 38.3 pM and 468 pM, respectively.

`COC(=O)N[C@H](C(=O)N1CCC[C@H]1c1nc(-c2ccc(-c3cnc4cc(-c5cnc([C@@H]6CCCN6C(=O)CNC(=O)CNC(C)=O)[nH]5)ccc4n3)cc2)c[nH]1)C(C)C` [Example 36, Methyl {(2S)-1-[(2S)-2-{4-[4-(6-{2-[(2S)-1-(N-acetylglycylglycyl)pyrrolidin-2-yl]-1H-imidazol-5-yl}quinoxalin-2-yl)phenyl]-1H-imidazol-2-yl}pyrrolidin-1-yl]-3-methyl-1-oxobutan-2-yl}carbamate trifluoroacetic acid salt]: the IC50 stood at 1740 pM in the experiment with 1b (con1) replicon cells (Hepatitis C virus, 48 h) and 29800 pM in the experiment on 1a-H77 replicon cells (Hepatitis C virus, 48 h).

As for `COC(=O)N[C@H](C(=O)N1CCC[C@H]1c1nc(-c2ccc(-c3cnc4cc(-c5cnc([C@@H]6CCCN6C(=O)CNC(=O)c6cnc(C)cn6)[nH]5)ccc4n3)cc2)c[nH]1)C(C)C` [Example 41, Methyl {(2S)-3-methyl-1-[(2S)-2-{4-[4-(6-{2-[(2S)-1-{N-[(5-methylpyrazin-2-yl)carbonyl]glycyl}pyrrolidin-2-yl]-1H-imidazol-5-yl}quinoxalin-2-yl)phenyl]-1H-imidazol-2-yl}pyrrolidin-1-yl]-1-oxobutan-2-yl}carbamate trifluoroacetic acid salt], the IC50 with 1b (con1) replicon cells (Hepatitis C virus, 48 h) stood at 128 pM; in the experiment on 1a-H77 replicon cells (Hepatitis C virus, 48 h), 1950 pM.

For `COC(=O)N[C@H](C(=O)N1CCC[C@H]1c1nc(-c2ccc(-c3cnc4cc(-c5cnc([C@@H]6CCCN6C(=O)[C@@H](C)NC(=O)OC)[nH]5)ccc4n3)cc2)c[nH]1)C(C)C` [Example 53, Methyl {(2S)-1-[(2S)-2-(4-{4-[6-(2-{(2S)-1-[N-(methoxycarbonyl)-D-alanyl]pyrrolidin-2-yl}-1H-imidazol-5-yl)quinoxalin-2-yl]phenyl}-1H-imidazol-2-yl)pyrrolidin-1-yl]-3-methyl-1-oxobutan-2-yl} carbamate trifluoroacetic acid salt], the IC50 in the experiment with 1b (con1) replicon cells (setting [2]) stood at 21.1 pM; with 1a-H77 replicon cells (setting [2]) it was 646 pM.

`COC(=O)N[C@@H](CC(C)C)C(=O)N1CCC[C@H]1c1ncc(-c2ccc3nc(-c4ccc(-c5c[nH]c([C@@H]6CCCN6C(=O)[C@@H](NC(=O)OC)C(C)C)n5)cc4)cnc3c2)[nH]1` [Example 68, Methyl {(2S)-1-[(2S)-2-{5-[2-(4-{2-[(2S)-1-{(2S)-2-[(methoxycarobnyl)amino]-3-methylbutanoyl}pyrrolidin-2-yl]-1H-imidazol-4-yl}phenyl)quinoxalin-6-yl]-1H-imidazol-2-yl}pyrrolidin-1-yl]-4-methyl-1-oxopentan-2-yl}carbamate trifluoroacetic acid salt]: the IC50 in the experiment with 1b (con1) replicon cells (setting [2]) was 8.15 pM; with 1a-H77 replicon cells (setting [2]) it was 23.2 pM.

As to `COC(=O)N[C@H](C(=O)N1CCC[C@H]1c1nc(-c2cnc(-c3cc4ccc(-c5cnc([C@@H]6CCCN6C(=O)[C@@H](NC(=O)OC)C(C)C)[nH]5)cc4cn3)nc2)c[nH]1)C(C)C` [Example 22, Methyl {(2S)-1-[(2S)-2-{4-[2-(7-{2-[(2S)-1-{(2S)-2-[(methoxycarbonyl)amino]-3-methylbutanoyl}pyrrolidin-2-yl]-1H-imidazol-5-yl}isoquinolin-3-yl)pyrimidin-5-yl]-1H-imidazol-2-yl}pyrrolidin-1-yl]-3-methyl-1-oxobutan-2-yl}carbamate], the IC50 came out at 152 pM with 1b (con1) replicon cells (setting [1]) and 2190 pM in the experiment with 1a-H77 replicon cells (setting [1]).

`CC[C@H](NC(C)=O)C(=O)N1CCC[C@H]1c1ncc(-c2ccc3nc(-c4ccc(-c5c[nH]c([C@@H]6CCCN6C(=O)[C@@H](NC(=O)OC)C(C)C)n5)cc4)cnc3c2)[nH]1` [Example 39, Methyl {(2S)-1-[(2S)-2-(4-{4-[6-(2-{(2S)-1-[(2S)-2-(acetylamino)butanoyl]pyrrolidin-2-yl}-1H-imidazol-5-yl)quinoxalin-2-yl]phenyl}-1H-imidazol-2-yl)pyrrolidin-1-yl]-3-methyl-1-oxobutan-2-yl}carbamate trifluoroacetic acid salt]: the IC50 in the experiment with 1b (con1) replicon cells (Hepatitis C virus, 48 h) came out at 48.1 pM; in the experiment on 1a-H77 replicon cells (Hepatitis C virus, 48 h) it was 1240 pM.

As for `COC(=O)N[C@H](C(=O)N1CCC[C@H]1c1nc(-c2ccc(-c3cnc4cc(-c5cnc([C@@H]6CCCN6C(=O)[C@@H](Cc6ccccc6)NC(=O)OC)[nH]5)ccc4n3)cc2)c[nH]1)C(C)C` [Example 62, Methyl {(2R)-1-[(2S)-2-{5-[2-(4-{2-[(2S)-1-{(2S)-2-[(methoxycarbonyl)amino]-3-methylbutanoyl}pyrrolidin-2-yl]-1H-imidazol-4-yl}phenyl)quinoxalin-6-yl]-1H-imidazol-2-yl}pyrrolidin-1-yl]-1-oxo-3-phenylpropan-2-yl}carbamate trifluoroacetic acid salt], the half-inhibitory concentration (IC50) in the experiment on 1b (con1) replicon cells (Hepatitis C virus, 48 h) came to 44.1 pM; in the experiment with 1a-H77 replicon cells (Hepatitis C virus, 48 h) it was 2570 pM.

Turning to `COC(=O)N[C@H](C(=O)N1CCC[C@H]1c1ncc(-c2ccc(-c3nc(O)c4cc(-c5cnc([C@@H]6CCCN6C(=O)[C@@H](NC(=O)OC)C(C)C)[nH]5)ccc4n3)cc2)[nH]1)C(C)C` [Example 15, Methyl {(2S)-1-[(2S)-2-{5-[4-(4-hydroxy-6-{2-[(2S)-1-{(2S)-2-[(methoxycarbonyl)amino]-3-methylbutanoyl}pyrrolidin-2-yl]-1H-imidazol-5-yl}quinazolin-2-yl)phenyl]-1H-imidazol-2-yl}pyrrolidin-1-yl]-3-methyl-1-oxobutan-2-yl}carbamate], the IC50 with 1b (con1) replicon cells (setting [1]) is 102 pM; in the experiment with 1a-H77 replicon cells (setting [1]), 194 pM.

For `COC(=O)N[C@@H](CC1CCCCC1)C(=O)N1CCC[C@H]1c1ncc(-c2ccc3nc(-c4ccc(-c5c[nH]c([C@@H]6CCCN6C(=O)[C@@H](NC(=O)OC)C(C)C)n5)cc4)cnc3c2)[nH]1` [Example 80, Methyl {(2S)-1-[(2S)-2-(4-{4-[6-(2-{(2S)-1-[3-cyclohexyl-N-(methoxycarbonyl)alanyl]pyrrolidin-2-yl}-1H-imidazol-5-yl)quinoxalin-2-yl]phenyl}-1H-imidazol-2-yl)pyrrolidin-1-yl]-3-methyl-1-oxobutan-2-yl} carbamate], the IC50 with 1b (con1) replicon cells (setting [2]) came to 11.4 pM; in the experiment with 1a-H77 replicon cells (setting [2]), 117 pM.

As to `COC(=O)N[C@H](C(=O)N1CCC[C@H]1c1nc(-c2ccc3cc(-c4ccc(-c5cnc([C@@H]6CCCN6C(=O)[C@@H](NC(=O)OC)C(C)C)[nH]5)cc4)ccc3n2)c[nH]1)C(C)C` [Example 13, Methyl {(2S)-1-[(2S)-2-{5-[4-(2-{2-[(2S)-1-{(2S)-2-[(methoxycarbonyl)amino]-3-methyl-butanoyl}pyrrolidin-2-yl]-1H-imidazol-4-yl}quinolin-6-yl)phenyl]-1H-imidazol-2-yl}pyrrolidin-1-yl]-3-methyl-1-oxobutan-2-yl}carbamate], the IC50 was determined as 12 pM in the experiment with 1b (con1) replicon cells (setting [1]) and 78.1 pM in the experiment on 1a-H77 replicon cells (setting [1]).

In the case of `COC(=O)N[C@H](C(=O)N1CCC[C@H]1c1nc(-c2ccc(-c3ccc4cc(-c5cnc([C@@H]6CCCN6C(=O)[C@@H](NC(=O)OC)C(C)C)[nH]5)ccc4c3)nc2)c[nH]1)C(C)C` [Example 6, Methyl {(2S)-1-[(2S)-2-{5-[6-(5-{2-[(2S)-1-{(2S)-2-[(methoxycarbonyl)amino]-3-methyl-butanoyl}pyrrolidin-2-yl]-1H-imidazol-4-yl}pyridin-2-yl)naphthalen-2-yl]-1H-imidazol-2-yl}pyrrolidin-1-yl]-3-methyl-1-oxobutan-2-yl}carbamate], the values for the IC50 in the experiment on 1b (con1) replicon cells (setting [1]) and in the experiment on 1a-H77 replicon cells (setting [1]) were 3.51 pM and 56.4 pM, respectively.

As for `COC(=O)N[C@H](C(=O)N1CCC[C@H]1c1nc(-c2ccc(-c3cnc4cc(-c5cnc([C@@H]6CCCN6C(=O)[C@@H](NC(C)=O)[C@@H](C)O)[nH]5)ccc4n3)cc2)c[nH]1)C(C)C` [Example 40, Methyl {(2S)-1-[(2S)-2-{4-[4-(6-{2-[(2S)-1-(N-acetyl-L-threonyl)pyrroldiin-2-yl]-1H-imidazol-5-yl}quinoxalin-2-yl)phenyl]-1H-imidazol-2-yl}pyrrolidin-1-yl]-3-methyl-1-oxobutan-2-yl}carbamate trifluoroacetic acid salt], the IC50 with 1b (con1) replicon cells (setting [2]) amounted to 55.8 pM; in the experiment with 1a-H77 replicon cells (setting [2]) it was 353 pM.

Turning to `COC(=O)N[C@H](C(=O)N1CCC[C@H]1c1nc(-c2ccc(-c3cnc4cc(-c5cnc([C@@H]6CCCN6C(=O)[C@@H](COCc6ccccc6)NC(=O)OC)[nH]5)ccc4n3)cc2)c[nH]1)C(C)C` [Example 63, Methyl {(2S)-1-[(2S)-2-{4-[4-(6-{2-[(2S)-1-{(2R)-3-(benzyloxy)-2-[(methoxycarbonyl)amino]propanoyl}pyrrolidin-2-yl]-1H-imidazol-5-yl}quinoxalin-2-yl)phenyl]-1H-imidazol-2-yl}pyrrolidin-1-yl]-3-methyl-1-oxobutan-2-yl}carbamate trifluoroacetic acid salt], the IC50 came out at 400 pM in the experiment with 1b (con1) replicon cells (Hepatitis C virus, 48 h) and 4770 pM with 1a-H77 replicon cells (Hepatitis C virus, 48 h).
